The values below come from ChEMBL document CHEMBL5137013 (Eur J Med Chem, 2022).

Data set [1] in a line: Cytotoxicity against human A549/TxR cells assessed as reduction in cell viability measured after 24 hrs by MTT assay. It counts as functional, cell-based. Background: Tetrazolium assays rely on reduction of a dye to a coloured formazan, in cell work by metabolically active cells.
Data set [2] in a line: Resistance index, ratio of IC50 for human MCF7/TxR cells to IC50 for human MCF7 cells. It counts as functional.
Data set [3] can be described thus: (§1) Inhibition of porcine brain tubulin polymerization measured at 1 min interval for 60 mins by fluorescence assay. On the set-up: species or system Sus scrofa.
The species named for the next data set is Sus scrofa. The data set is described as §1. To be noted: dose 1.25-5 µM, DDE = dose-dependent effect.
Data set [4] addresses T1, Tubulin (Homo sapiens) (UniProt P68371+Q9H4B7+P0DPH7+P68366+Q13509+Q71U36+P04350+Q3ZCM7+P07437+P68363+Q9BQE3+Q6PEY2+Q13885+Q9BVA1+Q9BUF5). The experiment in a line: Inhibition of tubulin polymerization in human HT-29 cells assessed as up regulation of detyrosinated-alpha-tubulin expression at 25 to 100 nM measured after 24 hrs by Western blot analysis. It counts as cell-based. To be noted: dose 25-100 nM. On the technique in general: Immunoblotting shows a protein as a band on a membrane.

Data set [5] addresses T1, Tubulin (Homo sapiens). The experiment in a line: Displacement of [3H] colchicine from tubulin (unknown origin) at 2.5 uM measured after 2 hrs by scintillation counting analysis relative to control. Type of data set: protein-complex assay. In general terms: In a radioligand displacement assay an active substance lowers the binding of a labelled ligand.
For data set [6], the target named is T1, Tubulin (Homo sapiens). Briefly: Induction of microtubule disruption in human HT-29 cells measured after 6 hrs by immunofluorescence assay. To be noted: dose 25-100 nM, DDE = dose-dependent effect. Type of data set: cell-based.
Another data set has as its system A549. The experiment in a line: Antimigratory activity against human A549 cells assessed as reduction in number of penetrated cells at 12.5 to 100 nM measured after 24 hrs by crystal violet staining based transwell assay. It counts as functional, cell-based. The following applies: dose 12.5-100 nM.
For data set [7], the system named is HT-29. The experiment in a line: Induction of apoptosis in human HT-29 cells assessed as down regulation of phosphorylated histone H3 expression at 25 to 100 nM measured after 24 hrs by Western blot analysis. To be noted: dose 25-100 nM. It counts as functional, cell-based.
For data set [8], the system named is HT-29. Briefly: Induction of apoptosis in human HT-29 cells assessed as increase in cleaved caspase-3 expression at 25 to 100 nM measured after 24 hrs by Western blot analysis. Type of data set: functional, cell-based. To be noted: dose 25-100 nM.
The subject of data set [9] is HT-29. The experiment in a line: Induction of mitochondrial dysfunction in human HT-29 cells assessed as reduction in red fluorescence intensity measured after 24 hrs by JC-1 staining based JC-1 dye based confocal laser scanning microscopy. Type of data set: functional, cell-based. The following applies: dose 25-100 nM, DDE = dose-dependent effect.
Data set [10] has as its system HT-29. Briefly: Induction of ROS generation in human HT-29 cells measured after 24 hrs by DCFH-DA dye based confocal laser scanning microscopy. Type of data set: functional, cell-based. The following applies: dose 25-100 nM, DDE = dose-dependent effect.
Data set [11] can be described thus: Toxicity in human HT-29 cells xenografted BALB/c nude mouse assessed as body weight loss at 5 to 10 mg/kg, ip administered as 2 days interval for 3 weeks and measured 3 times a week during compound dosing. It counts as organism-based. To be noted: in vivo, 504 h, dose 5-10 mg/kg.
Data set [12] in a line: Toxicity in human HT-29 cells xenografted BALB/c nude mouse assessed as effect on heart at 5 to 10 mg/kg, ip administered as 2 days interval for 3 weeks and measured 3 weeks post-initial dosing by H and E staining based histopathological analysis. Type of data set: organism-based. To be noted: in vivo, 504 h, dose 5-10 mg/kg.
Data set [13] in a line: Toxicity in human HT-29 cells xenografted BALB/c nude mouse assessed as effect on lung at 5 to 10 mg/kg, ip administered as 2 days interval for 3 weeks and measured 3 weeks post-initial dosing by H and E staining based histopathological analysis. Type of data set: organism-based. The following applies: in vivo, 504 h, dose 5-10 mg/kg.
Data set [14] is described as follows: Toxicity in human HT-29 cells xenografted BALB/c nude mouse assessed as effect on kidney at 5 to 10 mg/kg, ip administered as 2 days interval for 3 weeks and measured 3 weeks post-initial dosing by H and E staining based histopathological analysis. Type of data set: organism-based. To be noted: in vivo, 504 h, dose 5-10 mg/kg.
The nature of data set [15]: Clearance in Sprague-Dawley rat at 10 mg/kg, iv by HPLC-MS/MS analysis. It counts as ADME, organism-based. To be noted: in vivo.

Activity calls are given as the source filed them. No cut-off for these calls is given here.

One may read the IC50 as the concentration needed to halve the response being measured. For orientation: inhibition means the change of the read-out against control, counted positive when it falls. Consider `COC(=O)c1cc2c(cc1Nc1cc(OC)c(OC)c(OC)c1)OCCO2`, for which the IC50 in data set [1] was found to be 310 nM; in data set [3], 1090 nM. In addition, the “Ratio IC50” value in [2] came out at 1.3. Moreover, the values for the inhibition entry in the data set filed under Sus scrofa and on Tubulin (Homo sapiens) [5] were “Dde” and 77.6%, respectively. Besides, at Tubulin (Homo sapiens) [4], the inhibition entry was “Active”. Also, the Activity entry at Tubulin (Homo sapiens) [6] was “Dde”; in the data set on HT-29 [9], “Dde”; in the data set on HT-29 [10] it was “Dde”; in data set [11] it was “Non-Toxic”; in data set [12], “Non-Toxic”; in data set [13] it was “Non-Toxic”. In addition, the Activity result in data set [14] is recorded as “Non-Toxic”. The outcome in the data set with A549, in the data set on HT-29 [7] and with HT-29 [8] was Active. Further, the CL in [15] came out at 29.3 mL/min/kg.
